Source: patent US20240383913A1, “THIOPHENE RING COMPOUND, PREPARATION METHOD THEREFOR AND APPLICATION THEREOF” (CENTER FOR EXCELLENCE IN MOLECULAR CELL SCIENCE, CHINESE …, priority 2021, published 2024)

Columns and labels:
[1] = biological target: dopamine D2 receptors (Homo sapiens (Human), UniProt P14416); test: Dopamine D2 receptor β-arrestin2 BRET (recruitment); assay type: cell-based; settings: D2 receptor, β-arrestin2 pathway;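 also: cells co-expressing Rluc-fused D2 receptor, GRK2 and GFP2-fused β-arrestin2, BRET read with coelenterazine 400a after adding drug over a concentration series, in duplicate wells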
Procedure: To examine the downstream G protein signaling pathway mediated by dopamine D2 receptors, on the first day, a 6 cm culture dish was used for transfection with 1 μg of dopamine D2 receptors, 1 μg of Gαi1 containing a C-terminal seaweed luciferase (Gαi1-Rluc), 1 μg of Gβ3, 1 μg of Gγ9 containing C-terminal green fluorescent protein (Gγ9-GFP), and 16 μL of PEI. At the same time, in order to examine the downstream β-arrestin2 signaling pathway mediated by dopamine D2 receptors, on the first day, a 6 cm culture dish was used for transfection with 500 μg of dopamine D2 receptors containing C-terminal seaweed luciferase (D2-Rluc), 500 μg of G protein-coupled receptor kinase 2 (GRK2), 2500 μg of β-arrestin2 containing N-terminal green fluorescent protein (GFP2-ARRB2) mixed with 14 μL of PEI. The next day, the confluent cells of a 6 cm culture dish were digested and reseeded into a 96-well plate with 100 μL of culture medium added to each well. On the third day, the drugs were added for test. The 96-well plate was taken out from the cell incubator to decant the culture medium, 40 μL of the substrate coelenterazine 400a (final concentration of 5 μM) was added to each well, and then 20 μL of different drugs were added sequentially from left to right to ensure that the final concentration of the drug decreased gradually from bottom to top, with two replicates per treatment. Finally, the prepared samples were loaded on machine for test. The machine readout value reflected the recruitment of β-arrestin2 to the membrane or the dissociation of G protein trimer. The former indicated the degree of activation of the β-arrestin2 signaling pathway downstream of the dopamine D2 receptors, and the latter indicated the degree of activation of the G protein signaling pathway downstream of the dopamine D2 receptors.

[2] = biological target: 5-HT1A receptor (Homo sapiens (Human), UniProt P08908); test: 5-HT1A receptor Gαi1 BRET (G protein trimer dissociation); assay type: cell-based; settings: 5-HT1A receptor, G protein pathway;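 also: cells transiently co-expressing 5-HT1A receptor, luciferase-tagged Gαi1, Gβ3 and GFP-tagged Gγ9, seeded in 96-well plates for BRET measurement of G protein signaling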
Procedure: The affinity of the compounds of the present disclosure for the 5-HTIA receptors was determined by the method of radioligand competition experiment. In the first step, a cell membrane component containing specific 5-HTIA receptor was prepared. A 10 cm culture dish was used for transfection with 10 ng of the 5-HTIA receptor and 40 μL of PEI. After 48 hours, the 10 cm culture dish was taken out from the cell incubator and the cultured cells had expressed the 5-HTIA receptor. A vacuum pump was used to suck off the culture medium, 3 mL of lysis buffer was added to each culture dish, and the cells were placed in a 4° C. cold room for 10 minutes. After the cells were detached, the cells were transferred to a 15 mL centrifuge tube and centrifuged at 1500 rpm for 5 minutes at 4° C., and the supernatant was discarded. The cell pellet was transferred to a tissue homogenizer, and 3 mL of lysis buffer was added and fully ground until the cells were broken. Then, cell suspension was equally aliquoted into several EP tubes, centrifuged at 12000 rpm for 5 minutes at 4° C., and the supernatant was discarded. The precipitate was the cell membrane component containing the 5-HT1A receptor. […] First, a standard binding buffer was added to the cell membrane component containing the 5-HT1A receptor, and the cell membrane was disrupted and resuspended with an electric tissue homogenizer. 30 μL of membrane protein suspension was added to each well of a 96-well plate. Then, 30 μL of different drugs were added to the 96-well plate sequentially from bottom to top to ensure that the final drug concentrations were 10^−5 M, 10^−6 M, 10^−7 M, 10^−8 M, 10^−9 M, and 0 M, with two replicates per treatment. Next, 30 μL of [3H]-LSD was added to each well of the 96-well plate. The plate was incubated for 2 hours at room temperature in the dark. Detection was conducted. The machine readout value reflected the amount of [3H]-LSD bound on the membrane, and after further data processing, the affinity Ki values of different compounds for the 5-HTIA receptor were obtained. To examine the downstream G protein signaling pathway mediated by 5-HTIA receptors, on the first day, a 6 cm culture dish was used for transfection with 1 μg of 5-HTIA receptors, 1 μg of Gαi1 containing C-terminal seaweed luciferase (Gαi1-Rluc), 1 μg of Gβ3, 1 μg of Gγ9 containing C-terminal green fluorescent protein (Gγ9-GFP), and 16 μL of PEI. The next day, the confluent cells of a 6 cm culture dish were digested and reseeded into a 96-well plate with 100 μL of culture medium was added to each well. On the third day, the drugs were added for test. The 96-well plate was taken out from the cell incubator to decant the culture medium, 40 μL of the substrate coelenterazine 400a (final concentration of 5 μM) was added to each well, and then 20 μL of different drugs were added sequentially from left to right to ensure that the final concentration of the drug decreased gradually from bottom to top, with two replicates per treatment. Finally, the prepared samples were loaded on machine for test. The machine readout value reflected the dissociation of G protein trimer, and thereby indicated the degree of activation of the G protein signaling pathway downstream of the 5-HTIA receptors.

[3] = system: restraint-induced depression-like behaviors; test: Forced swimming test after 5-hour restraint; assay type: in vivo, C57B6 male mice
Procedure: The experimental animals were C57B6 male mice, n=8 in each group. 5-hour restraint were used to develop depression-like behavioral representations of the mice, then the effects of the compounds on their “depression-like” behaviors were measured according to behavioral performance in tail suspension test and forced swimming test. The specific experimental procedures were as follows: Firstly, the mice were restrained using a mouse fixator for tail vein injection. During the restraint process, all movement abilities of the mice were restricted under the condition of introducing minimal pain to the mice. Compounds were administered intraperitoneally twice, before and after restraint, respectively. After compound administration, the mice returned to the cage to recover for 30 minutes. […]
Forced swimming test: the mice were placed in a 5 L glass beaker filled with water, with the water level at 15 cm height, and the mice were forced to swim continuously in the beaker for 6 minutes. […] The duration of the immobility behavior was recorded intermittently for the remaining 4 minutes, and the immobility behavior of the mice was defined as: the mice float passively on the surface of the water without movement, with only small local movements required to maintain afloat. The duration of this immobility was measured to assess the level of behavioral despair in the mice. […]

Sequence of 5-HT1A receptor (P08908 whole entry): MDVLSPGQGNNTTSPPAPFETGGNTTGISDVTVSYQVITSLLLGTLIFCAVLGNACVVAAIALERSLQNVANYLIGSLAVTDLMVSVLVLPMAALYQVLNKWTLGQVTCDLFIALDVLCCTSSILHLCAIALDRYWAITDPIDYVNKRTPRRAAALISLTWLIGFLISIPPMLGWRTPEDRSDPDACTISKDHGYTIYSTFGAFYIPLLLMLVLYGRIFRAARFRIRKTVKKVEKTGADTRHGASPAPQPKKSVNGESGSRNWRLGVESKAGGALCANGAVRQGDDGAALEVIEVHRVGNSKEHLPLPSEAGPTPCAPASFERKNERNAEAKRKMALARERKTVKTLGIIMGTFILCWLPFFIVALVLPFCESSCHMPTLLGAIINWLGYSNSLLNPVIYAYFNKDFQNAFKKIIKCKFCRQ
Sequence of dopamine D2 receptors (P14416 whole entry, the tested form may be a part): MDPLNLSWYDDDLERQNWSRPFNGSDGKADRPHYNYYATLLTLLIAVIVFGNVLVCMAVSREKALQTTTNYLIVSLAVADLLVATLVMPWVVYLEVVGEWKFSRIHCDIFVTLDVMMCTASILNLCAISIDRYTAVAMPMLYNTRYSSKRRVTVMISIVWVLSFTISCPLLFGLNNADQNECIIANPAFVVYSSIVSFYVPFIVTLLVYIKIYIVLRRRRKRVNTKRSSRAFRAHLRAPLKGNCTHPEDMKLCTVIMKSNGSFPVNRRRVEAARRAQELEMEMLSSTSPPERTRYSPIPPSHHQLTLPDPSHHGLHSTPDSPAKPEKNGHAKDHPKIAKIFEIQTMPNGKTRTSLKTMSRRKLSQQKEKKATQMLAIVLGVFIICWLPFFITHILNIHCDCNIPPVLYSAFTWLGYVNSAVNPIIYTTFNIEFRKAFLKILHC

## CN(C)C(=O)N[C@H]1CC[C@H](CCN2CCN3c4cccc5scc(c45)CC3C2)CC1 (single isomer, unassigned; (-)) [(−)-I-27]
[1]
  β-arrestin2 BRET (Emax %): (54.79%)
[1]; read-out: β-arrestin2 BRET EC50
  EC50: 10.6 nM
[2]
  Gαi1 BRET (Emax %): (76%)
[2]; read-out: Gαi1 BRET EC50
  EC50: 166 nM
[3]; (−)-I-27 0.025 mg/kg i.p.
  Immobility time (seconds), forced swimming test: 91.83 ± 6.80 s
[3]; (−)-I-27 0.1 mg/kg i.p.
  Immobility time (seconds), forced swimming test: 56.89 ± 4.80 s
